From EPA's CvTdb concentration-time database

Experiments:
Rat [1] = test: concentration in plasma after dosing
Rat [2] = test: concentration in plasma after dosing; details: dosed: Isoeugenol, 17 mg/kg, oral, Female, F344/N
Rat [3] = test: concentration in plasma after dosing; details: dosed: Isoeugenol, 17 mg/kg, oral, Male, F344/N
Rat [4] = test: concentration in plasma after dosing; details: dosed: Isoeugenol, 70 mg/kg, oral, Male, F344/N
Rat [5] = test: concentration in plasma after dosing; details: 5 min; dosed: Isoeugenol; 17 mg/kg; oral; Male; F344/N
Rat [6] = test: concentration in plasma after dosing; details: dosed: Isoeugenol, 17 mg/kg, oral, Female, F344/N; remark: listed apart in the source
Rat [7] = test: concentration in plasma after dosing; details: dosed: Isoeugenol, 17 mg/kg, oral, Male, F344/N; remark: listed apart in the source
Rat [8] = test: concentration in plasma after dosing; details: dosed: Isoeugenol, 70 mg/kg, oral, Male, F344/N; remark: listed apart in the source
Rat [9] = test: concentration in plasma after dosing; details: 5 min; dosed: Isoeugenol; 17 mg/kg; oral; Male; F344/N; remark: listed apart in the source
Rat [10] = test: concentration in plasma after dosing; details: dosed: Isoeugenol, 17 mg/kg, oral, Male, F344/N; remark: listed apart in the source
Rat [11] = test: concentration in plasma after dosing; details: dosed: Isoeugenol, 17 mg/kg, oral, Female, F344/N; remark: listed apart in the source
Rat [12] = test: concentration in plasma after dosing; details: dosed: Isoeugenol, 17 mg/kg, oral, Male, F344/N; remark: listed apart in the source
Rat [13] = test: concentration in plasma after dosing; details: dosed: Tetralin, 2 mg/kg, iv, Male, F344
Rat [14] = test: concentration in plasma after dosing; details: dosed: Tetralin, 2 mg/kg, iv, Male, F344; remark: listed apart in the source
Rat [15] = test: concentration in plasma after dosing; details: dosed: Tetralin, 2 mg/kg, iv, Male, Harlan Sprague Dawley
Rat [16] = test: concentration in plasma after dosing; details: dosed: Tetralin, 2 mg/kg, iv, Male, F344; remark: listed apart in the source
Rat [17] = test: concentration in plasma after dosing; details: dosed: Tetralin, 20 mg/kg, iv, Female, Harlan Sprague Dawley
Rat [18] = test: concentration in plasma after dosing; details: dosed: Tetralin, 20 mg/kg, iv, Female, Harlan Sprague Dawley; remark: listed apart in the source
Rat [19] = test: concentration in plasma after dosing; details: dosed: Tetralin, 2 mg/kg, iv, Male, F344; remark: listed apart in the source
rat [20] = test: concentration in blood after dosing; details: male
rat [21] = test: concentration in blood after dosing; details: dosed: styrene, 3000 ppm, dermal, duration: 4 hr, male, F344

C/C=C/c1ccc(O)c(OC)c1 [Isoeugenol]
concentration in plasma [µg/mL], Rat [1], dosed: Isoeugenol, oral, F344/N
Details | Female | Male
0.5 h, 17 mg/kg | 0.155 | 0.0878
0.5 h, 70 mg/kg | – | 0.312
0.75 h, 17 mg/kg | 0.0735 | 0.073
1 h, 17 mg/kg | 0.0577 | 0.0344
1.5 h, 17 mg/kg | – | 0.0265
1.5 h, 70 mg/kg | – | 0.118
2 h, 17 mg/kg | 0.0277 | –
2 min, 17 mg/kg | 0.0483 | 0.0539
2 min, 70 mg/kg | – | 1.16
3 h, 17 mg/kg | 0.0481 | –
3 h, 70 mg/kg | – | 0.216
4 h, 17 mg/kg | 0.0353 | 0.0375
5 h, 17 mg/kg | 0.0501 | –
5 h, 70 mg/kg | – | 0.199
5 min, 17 mg/kg | 0.346 | 0.141
5 min, 70 mg/kg | – | 0.683
6 h, 17 mg/kg | 0.0327 | 0.0276
6 h, 70 mg/kg | – | 0.15
8 h, 17 mg/kg | 0.0385 | –
8 h, 70 mg/kg | – | 0.362
10 min, 17 mg/kg | 0.161 | 0.148
10 min, 70 mg/kg | – | 0.499
20 min, 17 mg/kg | 0.358 | 0.0861
20 min, 70 mg/kg | – | 0.672

Details | concentration in plasma [µg/mL]
Rat [2], 4 h | 0.0285
Rat [2], 10 min | 0.5
Rat [3], 1.5 h | 0.0343
Rat [3], 2 min | 0.0383
Rat [4], 1.5 h | 0.097
Rat [4], 10 min | 0.85
Rat [6], 1 h | 0.129
Rat [6], 5 h | 0.0697
Rat [7], 0.5 h | 0.0954
Rat [7], 2 h | 0.0302
Rat [8], 5 h | 0.0668
Rat [8], 10 min | 0.353
Rat [10], 1 h | 0.0395
Rat [10], 6 h | 0.0277
Rat [11], 5 min | 0.375
Rat [11], 6 h | 0.16
Rat [12], 0.75 h | 0.057
Rat [12], 8 h | 0.0195

Details | concentration in plasma [µg/mL]
Rat [5] | 0.238
Rat [9] | 0.194

c1ccc2c(c1)CCCC2 [Tetralin]
Details | concentration in plasma [µg/g]
Rat [13], 1 h | 0.0668
Rat [13], 24 h | 0.00063
Rat [14], 0.5033 h | 0.216
Rat [14], 8 h | 0.00356
Rat [15], 0.2533 h | 0.406
Rat [15], 6 h | 0.00586
Rat [16], 0.75 h | 0.105
Rat [16], 12 h | 0.00167
Rat [17], 1 h | 0.797
Rat [17], 24 h | 0.00536
Rat [18], 4 h | 0.216
Rat [18], 5 min | 22.1
Rat [19], 0.505 h | 0.246
Rat [19], 8 h | 0.00426

concentration in plasma [µg/g], Rat [1], dosed: Tetralin, iv
Details | F344 | Harlan Sprague Dawley
0.25 h, 20 mg/kg, Female | – | 9.76
0.2517 h, 2 mg/kg, Male | 0.888 | –
0.2533 h, 2 mg/kg, Male | – | 0.449
0.5033 h, 20 mg/kg, Female | – | 2.55
0.505 h, 2 mg/kg, Male | – | 0.207
0.5067 h, 2 mg/kg, Male | 0.254 | –
0.75 h, 2 mg/kg, Male | 0.107 | 0.0681
0.75 h, 20 mg/kg, Female | – | 2.11
1 h, 2 mg/kg, Male | 0.11 | 0.0492
1 h, 20 mg/kg, Female | – | 2.1
2 h, 2 mg/kg, Male | 0.0262 | 0.0157
2 h, 20 mg/kg, Female | – | 0.596
4 h, 2 mg/kg, Male | 0.0114 | 0.0103
4 h, 20 mg/kg, Female | – | 0.2
4 h, 20 mg/kg, Male | 0.158 | –
6 h, 2 mg/kg, Male | 0.00667 | 0.00504
6.017 h, 20 mg/kg, Female | – | 0.105
8 h, 2 mg/kg, Male | 0.00488 | 0.00316
8 h, 20 mg/kg, Female | – | 0.0424
12 h, 2 mg/kg, Male | 0.00332 | 0.00151
12 h, 20 mg/kg, Female | – | 0.0371
24 h, 2 mg/kg, Male | 0.00081 | –
24 h, 20 mg/kg, Female | – | 0.00866
301 s, 20 mg/kg, Male | 21 | –
303 s, 20 mg/kg, Female | – | 23.1
307 s, 2 mg/kg, Male | – | 1.68
322 s, 2 mg/kg, Male | 1.64 | –

[3H][3H] [[3]H]
rat [20], dosed: benzo[a]pyrene, Sprague Dawley
Details | concentration in blood [pmol/mL]
0 h, 1.70 nmol, iv | 37.2
0 h, 3.20 nmol, oral | 0.288
0 h, 4 nmol, oral | 0.112
0.1116 h, 1.70 nmol, iv | 12
0.1125 h, 1.70 nmol, iv | 18.1
0.1153 h, 1.70 nmol, iv | 8.27
0.1252 h, 1.70 nmol, iv | 3.03
0.1473 h, 1.70 nmol, iv | 12.7
0.1638 h, 4 nmol, oral | 0.0356
0.1807 h, 4 nmol, oral | 0.233
0.182 h, 1.70 nmol, iv | 8.84
0.2047 h, 3.20 nmol, oral | 0.443
0.3049 h, 1.70 nmol, iv | 3.66
0.3458 h, 1.70 nmol, iv | 3.2
0.4131 h, 3.20 nmol, oral | 0.622
0.4184 h, 4 nmol, oral | 0.364
0.4356 h, 4 nmol, oral | 0.0332
0.443 h, 3.20 nmol, oral | 0.188
0.6282 h, 4 nmol, oral | 0.444
0.6407 h, 1.70 nmol, iv | 2.67
0.6517 h, 3.20 nmol, oral | 0.22
0.6678 h, 4 nmol, oral | 0.0641
0.6836 h, 3.20 nmol, oral | 0.741
0.6859 h, 1.70 nmol, iv | 1.6
0.8687 h, 4 nmol, oral | 0.516
0.9146 h, 1.70 nmol, iv | 2.27
0.9355 h, 1.70 nmol, iv | 0.81
0.9369 h, 4 nmol, oral | 0.0732
0.9512 h, 3.20 nmol, oral | 0.245
0.9543 h, 3.20 nmol, oral | 0.873
1.04 h, 3.20 nmol, oral | 0.279
1.135 h, 3.20 nmol, oral | 0.947
1.371 h, 1.70 nmol, iv | 1.8
1.4 h, 3.20 nmol, oral | 0.297
1.416 h, 1.70 nmol, iv | 0.882
1.435 h, 3.20 nmol, oral | 1.17
1.639 h, 3.20 nmol, oral | 0.347
1.858 h, 1.70 nmol, iv | 1.32
1.88 h, 1.70 nmol, iv | 0.331
1.886 h, 4 nmol, oral | 0.208
1.95 h, 3.20 nmol, oral | 1.17
2.33 h, 3.20 nmol, oral | 0.383
2.464 h, 3.20 nmol, oral | 1.19
2.498 h, 4 nmol, oral | 0.817
3.067 h, 3.20 nmol, oral | 1.37
3.756 h, 3.20 nmol, oral | 0.16
3.763 h, 4 nmol, oral | 0.0925
3.824 h, 1.70 nmol, iv | 1.31
3.841 h, 1.70 nmol, iv | 0.238
4.13 h, 4 nmol, oral | 0.9
4.75 h, 3.20 nmol, oral | 0.144
4.761 h, 3.20 nmol, oral | 1.39
5.695 h, 4 nmol, oral | 0.059
5.72 h, 3.20 nmol, oral | 0.0876
5.758 h, 3.20 nmol, oral | 1.58
5.767 h, 1.70 nmol, iv | 0.231
5.852 h, 1.70 nmol, iv | 1.2
7.678 h, 3.20 nmol, oral | 0.0754
7.696 h, 3.20 nmol, oral | 1.38
8.636 h, 1.70 nmol, iv | 1.06
8.719 h, 1.70 nmol, iv | 0.195
9.661 h, 3.20 nmol, oral | 1.58
9.666 h, 3.20 nmol, oral | 0.0665
11.66 h, 4 nmol, oral | 0.971
11.69 h, 3.20 nmol, oral | 1.46
11.71 h, 3.20 nmol, oral | 0.0645
11.72 h, 4 nmol, oral | 0.0461
12.06 h, 1.70 nmol, iv | 0.983
23.76 h, 4 nmol, oral | 0.0211
23.79 h, 3.20 nmol, oral | 0.0341
23.82 h, 3.20 nmol, oral | 1.25
23.82 h, 4 nmol, oral | 0.858
28.68 h, 1.70 nmol, iv | 0.0889
29.09 h, 1.70 nmol, iv | 0.82
31.89 h, 3.20 nmol, oral | 0.0299
153 s, 1.70 nmol, iv | 38.5
172 s, 1.70 nmol, iv | 16.8
225 s, 4 nmol, oral | 0.176
238 s, 3.20 nmol, oral | 0.0632
265 s, 1.70 nmol, iv | 26.5
278 s, 1.70 nmol, iv | 26.9
297 s, 3.20 nmol, oral | 0.492
321 s, 3.20 nmol, oral | 0.107
331 s, 4 nmol, oral | 0.194

C=Cc1ccccc1 [styrene]
rat [21]
Details | concentration in blood [µg/mL]
0.5 h | 2.86
1 h | 8.01
2 h | 4.91
3 h | 11.3
4 h | 10.2

rat [20], dosed: styrene, 3000 ppm, dermal, duration: 4 hr, F344
Details | concentration in blood [µg/mL]
0.5 h | 1.48
1 h | 2.09
2 h | 4.16
3 h | 6.07
4 h | 7.61
